From patent US20220110902A1, “Methods of treating amyloid-beta peptide diseases” (Ecole Polytechnique Federale de Lausanne, priority 2016, published 2022)
Entries after “also recorded” stand apart in the source; their conditions may differ.

What was measured:
[1] = system: SH-SY5Y neuroblastoma cell line expressing the APP Swedish K670N/M671L double mutation (APPSwe); assay: Immunostaining of intracellular Aβ deposits in APPSwe SH-SY5Y cells; format: cell-based, human
Method: The SH-SY5Y neuroblastoma cell line expressing the APP Swedish K670N/M671L double mutation (APPSwe) was a kind gift of Prof. Cedazo-Minguez (Karolinska Institute, Sweden). Cells were grown in DMEM/F-12, supplemented with 10% fetal bovine serum (FBS, Gibco), GlutaMAX (100×, Gibco) and penicillin/streptomycin (1×, Gibco). Cells were selected in 4 μg/mL Geneticin® Selective Antibiotic (G418 Sulfate, Sigma) and grown for three generations before experiments with cells plated and passaged at 4×10^3 cells/ml and 60% confluence, respectively. Cells were cultured at 37° C. under a 5% CO2 atmosphere and tested for mycoplasma using Mycoprobe (#CUL001B, R&D systems) following the manufacturer's instructions. Cells were treated with 10 μg/mL dox, NR 1 or 3 mM, ISRIB 0.5 μM (Sigma), as indicated for 24 hours before cell harvesting or fixation. For the immunostaining, cells were fixed with 1× Formal-Fixx (Thermo Scientific) for 15 min. After 15 min permeabilization with 0.1% Triton X-100, cells were blocked in PBS supplemented with 5% fetal bovine serum for 1 hour and immunostained overnight, at 4° C., with the anti-β-Amyloid 1-42 (1:100, Millipore AB5078P). The secondary antibody was coupled to the Alexa-488 fluorochrome (Thermo Scientific), and nuclei were stained with DAPI (Invitrogen, D1306). After washing in PBS, cell slides were mounted with Dako mounting medium (Dako, S3023) and examined with a Zeiss LSM 700 confocal microscope (Carl Zeiss MicroImaging) equipped with a Plan-Apochromat 40×/1.3 NA oil immersion objective lens using a 488 nm laser. Laser power was set at the lowest intensity allowing clear visualization of the signal. Imaging settings were maintained with the same parameters for comparison between different experimental conditions.
The SH-SY5Y neuroblastoma cell line expresses the APP Swedish K670N/M671L double mutation (APPSwe) (Zheng et al., 2011) and accumulates intracellular Aβ amyloid aggregates. Cells were grown in DMEM/F-12, supplemented with 10% fetal bovine serum (FBS, Gibco), GlutaMAX (100×, Gibco) and penicillin/streptomycin (1×, Gibco). Cells were selected in 4 μg/mL Geneticin® Selective Antibiotic (G418 Sulfate, Sigma) and grown for three generations before experiments with cells plated and passaged at 4×10{right arrow over ( )}3 cells/ml and 60% confluence, respectively. Cells were cultured at 37° C. under a 5% CO2 atmosphere and tested for mycoplasma using Mycoprobe (#CUL001B, R&D systems), following the manufacturer's instructions. Myriocin was dissolved in DMSO.
Cells were treated with 10 uM Myriocin and Fumonisin B1 for 24 hours before harvesting or fixation (FIG. 3A). For immunostaining, cells were fixed with 1× Formal-Fixx (Thermo Scientific) for 15 min. […]

CL2122 worms = assay: Mobility of CL2122 control worms; format: in vivo, C. elegans; settings: CL2122, day 1 to 4 and day 8 of adulthood; NR 1 mM, AZD 0.3 μM
Method: Doxycycline was obtained from Sigma-Aldrich and dissolved in water. For experiments, a final concentration of 15 μg/mL was used. Olaparib (AZD2281) was dissolved in DMSO to experimental concentrations of 300 nM. Nicotinamide Riboside triflate (NR) was custom synthesized by Novalix (www.novalix-pharma.com/) and dissolved in water, and used at a final concentration of 1 mM. Compounds were added just before pouring the plates. For phenotyping experiments, parental F0 L4 worms were allowed to reach adulthood and lay eggs on the treatment plates. The deriving F1 worms were therefore exposed to compounds during the full life from eggs until death. For RNA analysis experiments, synchronized L1 worms were exposed to the compounds until harvest. To ensure a permanent exposure to the compound, plates were changed twice a week.
Mobility: C. elegans movement analysis was performed as described, starting from day 1 of adulthood, using the Movement Tracker software. The experiments were repeated at least twice.

Q: `CCCCCCC(=O)CCCCCC/C=C/C[C@@H](O)[C@H](O)[C@@](N)(CO)C(=O)O` [Myriocin, (E,2S,3R,4R)-2-amino-3,4-dihydroxy-2-(hydroxymethyl)-14-oxoicos-6-enoic acid] was tested. Which “intracellular Aβ deposits” value ([1]; 10 uM, 24 hours) did it give?
A: The value was “significantly reduced; also recorded: markedly reduced”.

Q: Which “intracellular Aβ deposits (anti-β-Amyloid 1-42 immunodetection)” value ([1]; 24 h, dox 10 μg/mL, NR 3 mM) does the source give for `NC(=O)c1ccc[n+]([C@@H]2O[C@H](CO)[C@@H](O)[C@H]2O)c1` [NR, Nicotinamide Riboside triflate] here?
A: Its value is “remarkable reduction”.

Q: What about the “fitness (mobility) of control strain” value (CL2122 worms) of the same compound?
A: The value was “only improved CL2122 fitness during aging”.

Q: `O=C(c1cc(Cc2n[nH]c(=O)c3ccccc23)ccc1F)N1CCN(C(=O)C2CC2)CC1` [AZD, Olaparib, reference compound] was tested. Which “fitness (mobility) of control strain” value (CL2122 worms) did it give?
A: The value was “only improved CL2122 fitness during aging”.
